Measurements published in patent US12421243B2, “Pharmaceutically effective compounds inhibiting selectively the myosin 2 isoforms” (PRINTNET KERESKEDELMI ÉS SZOLGÁLTATÓ KFT., priority 2018, dated 2025).

Tests used:
platelet myosin 2 = platelet myosin 2 (Homo sapiens, UniProt P35579); details: cited from earlier work
myosin 2 = myosin 2 inhibitors, review data; cited from earlier work
skeletal muscle myosin 2 = details: cited from earlier work
[1] = vital parameters of live anesthetized rats monitored during isometric force measurement; type: in vivo; details: anesthetized rat; for Maximum change of vital parameters (%) blood flow: neck arteries
Procedure: (§1) The maximum isometric force induced by the stimulation was determined after intraperitoneal injection of some of the compounds of the invention. During the measurement, the following parameters of live anesthetized rats were continuously monitored: • a) heart rate • b) blood flow in the neck arteries • c) respiratory frequency • d) blood oxygen saturation ratio

[2] = biological target: T1, isolated porcine cardiac ventricular myocardium (cardiac) (Sus scrofa, UniProt P79293); assay: actomyosin steady state ATPase measurement, cardiac myosin; type: biochemical; details: for IC50: concentration required for semi-maximal inhibition of ATPase; for % inhibition. complete cardiac: maximum value of inhibition of ATPase activity; for inhibition at 5 µM: read-out: % inhibition at 5 μM (or 10 μM if racemate) cardiac, 5 μM (10 μM if racemate); for inhibition at 5 µM / inhibition at 50 µM: ATPase activity; for inhibition at 50 µM: read-out: % inhibition at 50 μM (or 100 μM if racemate) cardiac, 50 μM (100 μM if racemate)
T1 construct: isolated porcine cardiac ventricular myocardium (cardiac); from tissue; host or cells: porcine cardiac ventricle
T1 sequence (P79293 whole entry): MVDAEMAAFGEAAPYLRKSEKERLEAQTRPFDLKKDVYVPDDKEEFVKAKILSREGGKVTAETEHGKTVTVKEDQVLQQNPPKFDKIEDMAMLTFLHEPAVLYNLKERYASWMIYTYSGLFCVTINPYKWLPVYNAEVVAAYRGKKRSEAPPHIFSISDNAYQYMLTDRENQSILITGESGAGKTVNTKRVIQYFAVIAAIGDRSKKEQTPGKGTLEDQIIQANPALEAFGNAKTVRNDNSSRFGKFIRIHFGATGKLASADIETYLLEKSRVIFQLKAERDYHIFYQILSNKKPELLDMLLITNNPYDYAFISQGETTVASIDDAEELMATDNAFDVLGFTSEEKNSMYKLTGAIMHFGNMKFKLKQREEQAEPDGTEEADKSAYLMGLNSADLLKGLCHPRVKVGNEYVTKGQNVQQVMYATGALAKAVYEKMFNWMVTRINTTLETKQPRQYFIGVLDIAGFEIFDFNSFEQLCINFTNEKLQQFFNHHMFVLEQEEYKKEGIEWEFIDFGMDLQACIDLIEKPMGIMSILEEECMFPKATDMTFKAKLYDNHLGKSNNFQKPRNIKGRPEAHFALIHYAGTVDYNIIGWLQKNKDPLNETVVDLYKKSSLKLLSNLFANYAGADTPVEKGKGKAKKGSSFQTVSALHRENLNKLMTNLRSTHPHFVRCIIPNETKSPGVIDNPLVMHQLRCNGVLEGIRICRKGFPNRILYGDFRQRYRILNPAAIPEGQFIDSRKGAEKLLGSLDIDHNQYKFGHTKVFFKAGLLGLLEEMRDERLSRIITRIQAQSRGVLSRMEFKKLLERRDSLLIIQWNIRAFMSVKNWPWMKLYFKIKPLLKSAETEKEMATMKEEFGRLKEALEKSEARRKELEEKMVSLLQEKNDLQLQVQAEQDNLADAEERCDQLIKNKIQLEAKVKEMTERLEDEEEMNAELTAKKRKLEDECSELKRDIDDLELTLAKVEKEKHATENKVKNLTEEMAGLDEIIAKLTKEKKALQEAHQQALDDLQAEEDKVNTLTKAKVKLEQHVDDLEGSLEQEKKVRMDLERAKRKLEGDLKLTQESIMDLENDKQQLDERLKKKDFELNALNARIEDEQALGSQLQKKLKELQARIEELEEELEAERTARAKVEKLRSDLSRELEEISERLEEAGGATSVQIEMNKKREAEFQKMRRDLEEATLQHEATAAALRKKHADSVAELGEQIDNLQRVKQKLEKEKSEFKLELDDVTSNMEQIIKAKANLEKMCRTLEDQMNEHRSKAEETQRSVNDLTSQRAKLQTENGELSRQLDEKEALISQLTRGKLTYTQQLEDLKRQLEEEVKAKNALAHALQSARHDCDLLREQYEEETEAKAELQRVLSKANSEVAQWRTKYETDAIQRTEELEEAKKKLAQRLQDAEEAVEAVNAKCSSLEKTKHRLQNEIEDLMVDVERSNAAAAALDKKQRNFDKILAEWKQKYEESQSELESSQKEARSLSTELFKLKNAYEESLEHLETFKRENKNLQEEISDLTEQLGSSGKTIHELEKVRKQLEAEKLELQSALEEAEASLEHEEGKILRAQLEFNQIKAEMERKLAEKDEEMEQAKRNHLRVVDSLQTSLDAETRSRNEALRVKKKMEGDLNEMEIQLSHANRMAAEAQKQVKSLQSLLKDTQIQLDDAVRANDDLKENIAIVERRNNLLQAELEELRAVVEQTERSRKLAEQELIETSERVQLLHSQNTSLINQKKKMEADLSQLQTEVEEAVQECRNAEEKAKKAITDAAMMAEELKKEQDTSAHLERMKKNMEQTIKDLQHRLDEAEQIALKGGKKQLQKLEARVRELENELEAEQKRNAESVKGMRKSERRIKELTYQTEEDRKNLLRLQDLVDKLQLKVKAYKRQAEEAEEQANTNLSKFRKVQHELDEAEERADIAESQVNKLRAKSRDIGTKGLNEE
Text: (§2) […]; (ii) the concentration required for semi-maximal inhibition.

[3] = biological target: isolated smooth muscle myosin (UniProt P10587); type: biochemical, chamois; details: concentration required for semi-maximal inhibition of ATPase
Text: (ii) the concentration required for semi-maximal inhibition.

[4] = biological target: recombinant Dictyostelium miozin (Dictyostelium) (Dictyostelium discoideum, UniProt P08799); assay: actomyosin steady state ATPase measurement, Dictyostelium myosin; type: biochemical; details: for IC50: concentration required for semi-maximal inhibition of ATPase, read-out: IC50 (μM) Dicty; for inhibition at 5 µM: read-out: % inhibition at 5 μM (or 10 μM if racemate) Dicty; for inhibition at 50 µM: read-out: % inhibition at 50 μM (or 100 μM if racemate) Dicty
Text: as §2

[5] = biological target: recombinant human non-muscle myosin 2 NM2A (Homo sapiens, UniProt P35579); assay: actomyosin steady state ATPase measurement, NM2A; type: biochemical; details: for IC50: concentration required for semi-maximal inhibition of ATPase; for inhibition at 5 µM: read-out: % inhibition at 5 μM (or 10 μM if racemate) NM2A, 5 μM (10 μM if racemate); for inhibition at 5 µM / inhibition at 50 µM: ATPase activity; for inhibition at 50 µM: read-out: % inhibition at 50 μM (or 100 μM if racemate) NM2A, 50 μM (100 μM if racemate)
Text: as §2

[6] = biological target: recombinant human non-muscle myosin 2 NM2C (Homo sapiens, UniProt Q7Z406); assay: actomyosin steady state ATPase measurement, NM2C; type: biochemical; details: for IC50: concentration required for semi-maximal inhibition of ATPase; for inhibition at 5 µM: read-out: % inhibition at 5 μM (or 10 μM if racemate) NM2C, 5 μM (10 μM if racemate); for inhibition at 5 µM / inhibition at 50 µM: ATPase activity; for inhibition at 50 µM: read-out: % inhibition at 50 μM (or 100 μM if racemate) NM2C, 50 μM (100 μM if racemate)
Text: as §2

[7] = biological target: isolated smooth muscle myosin (UniProt P10587); type: biochemical, chamois; details: for % inhibition at 5 μM (or 10 μM if racemate) Smooth: 5 μM (10 μM if racemate); for % inhibition at 5 μM (or 10 μM if racemate) Smooth / % inhibition at 50 μM (or 100 μM if racemate) Smooth: ATPase activity; for % inhibition at 50 μM (or 100 μM if racemate) Smooth: 50 μM (100 μM if racemate); for % inhibition. complete Smooth: maximum value of inhibition of ATPase activity
M. quadriceps femoris = assay: isometric force measurement of live, anesthetized rat M. quadriceps femoris due to electrical stimulation; type: in vivo
Procedure: as §1, with “saturation ratio Results from live anesthetized rats are summarized in the table below.” for “saturation ratio”

[8] = test system: isolated rabbit skeletal muscle myosin (skeletal); assay: actomyosin steady state ATPase measurement, skeletal muscle myosin; type: biochemical; details: for % inhibition at 5 μM (or 10 μM if racemate) Skeletal: 5 μM (10 μM if racemate); for % inhibition at 5 μM (or 10 μM if racemate) Skeletal / % inhibition at 50 μM (or 100 μM if racemate) Skeletal: ATPase activity; for % inhibition at 50 μM (or 100 μM if racemate) Skeletal: 50 μM (100 μM if racemate); for IC50: concentration required for semi-maximal inhibition of ATPase; for % inhibition. complete Skeletal: maximum value of inhibition of ATPase activity
Text: as §2

[9] = solubility in PBS in the presence of 1% DMSO; type: physicochemical; details: phosphate buffered saline with 1% DMSO, aqueous buffer, kinetic from dmso stock, PBS w/o Mg, Ca
[10] = biological target: recombinant human non-muscle myosin 2 NM2B (Homo sapiens, UniProt P35580); assay: actomyosin steady state ATPase measurement, NM2B; type: biochemical
Chain of recombinant human non-muscle myosin 2 NM2B (P35580 whole entry): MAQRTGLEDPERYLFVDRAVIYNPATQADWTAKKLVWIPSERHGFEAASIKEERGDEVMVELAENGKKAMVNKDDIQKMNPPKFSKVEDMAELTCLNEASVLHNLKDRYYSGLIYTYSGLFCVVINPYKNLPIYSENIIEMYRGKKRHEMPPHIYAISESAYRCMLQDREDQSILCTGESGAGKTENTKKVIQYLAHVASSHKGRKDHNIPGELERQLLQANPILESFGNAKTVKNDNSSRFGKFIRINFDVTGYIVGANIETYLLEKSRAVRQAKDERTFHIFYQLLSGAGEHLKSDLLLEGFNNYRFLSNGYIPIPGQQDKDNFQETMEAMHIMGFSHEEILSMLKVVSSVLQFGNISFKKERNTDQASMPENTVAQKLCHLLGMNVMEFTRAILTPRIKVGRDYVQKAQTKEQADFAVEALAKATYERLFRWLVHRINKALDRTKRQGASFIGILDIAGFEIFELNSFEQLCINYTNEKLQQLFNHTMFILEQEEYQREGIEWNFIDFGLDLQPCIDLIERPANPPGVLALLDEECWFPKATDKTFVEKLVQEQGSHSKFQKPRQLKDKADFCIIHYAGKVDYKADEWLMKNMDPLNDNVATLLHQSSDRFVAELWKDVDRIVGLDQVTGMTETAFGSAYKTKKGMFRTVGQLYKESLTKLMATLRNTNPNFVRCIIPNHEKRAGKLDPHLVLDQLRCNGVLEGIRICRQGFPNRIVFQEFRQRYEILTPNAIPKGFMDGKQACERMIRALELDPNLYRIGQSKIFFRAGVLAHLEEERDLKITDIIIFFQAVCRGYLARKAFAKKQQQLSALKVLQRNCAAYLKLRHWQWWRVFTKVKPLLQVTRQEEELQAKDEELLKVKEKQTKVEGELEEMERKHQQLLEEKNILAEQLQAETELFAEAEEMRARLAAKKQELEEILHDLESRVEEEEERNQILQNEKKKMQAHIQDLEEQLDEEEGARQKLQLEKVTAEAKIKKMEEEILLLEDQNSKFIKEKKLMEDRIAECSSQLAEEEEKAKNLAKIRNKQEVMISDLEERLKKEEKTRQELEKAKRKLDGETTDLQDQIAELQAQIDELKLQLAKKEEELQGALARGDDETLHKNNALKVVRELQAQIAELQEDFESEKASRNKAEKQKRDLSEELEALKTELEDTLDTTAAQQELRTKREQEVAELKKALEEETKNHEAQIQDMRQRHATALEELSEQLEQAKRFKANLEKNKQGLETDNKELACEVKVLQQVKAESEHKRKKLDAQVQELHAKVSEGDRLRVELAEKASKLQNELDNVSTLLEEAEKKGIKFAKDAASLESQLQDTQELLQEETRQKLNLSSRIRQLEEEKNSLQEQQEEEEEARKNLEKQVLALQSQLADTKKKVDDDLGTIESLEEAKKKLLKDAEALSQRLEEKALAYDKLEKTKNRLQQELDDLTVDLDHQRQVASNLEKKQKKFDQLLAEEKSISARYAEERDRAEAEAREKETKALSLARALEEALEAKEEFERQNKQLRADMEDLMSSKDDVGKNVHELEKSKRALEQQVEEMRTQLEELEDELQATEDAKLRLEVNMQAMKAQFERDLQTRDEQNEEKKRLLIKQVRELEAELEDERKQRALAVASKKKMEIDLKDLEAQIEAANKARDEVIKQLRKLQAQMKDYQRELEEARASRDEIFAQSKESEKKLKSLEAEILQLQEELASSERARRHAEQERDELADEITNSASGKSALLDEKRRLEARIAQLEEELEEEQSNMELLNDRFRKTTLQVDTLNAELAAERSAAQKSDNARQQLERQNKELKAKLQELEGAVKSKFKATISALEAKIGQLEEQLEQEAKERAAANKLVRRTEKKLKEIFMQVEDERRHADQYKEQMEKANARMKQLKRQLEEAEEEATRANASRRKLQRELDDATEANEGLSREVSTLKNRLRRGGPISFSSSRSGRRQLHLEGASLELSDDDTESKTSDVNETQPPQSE
Text: as §2

[11] = test system: myosin 1, myosin 5, and myosin 10; details: cited from earlier work
[12] = maximum value of inhibition of ATPase activity

For `Cc1ccc(S(=O)(=O)NCc2ccccc2)cc1` [BTS, N-Benzyl-p-toluenesulfonamide], the “inhibition of platelet myosin 2” value (platelet myosin 2) is listed as “does not inhibit”, the Binding strength (myosin 2) is listed as ~5 µM and the “inhibits fast muscle skeletal myosin-2 times more stronger than slow skeletal muscle myosin-2, myocardial myosin-2 or non-muscle myosin 2” value (skeletal muscle myosin 2; selectivity among myosin 2 isoforms) is listed as 100 times.
In the case of `CC(=O)/C(C)=N/O` [BDM, 2,3-butanedione monoxime], the Binding strength (myosin 2) is given as ~5000 µM and the IC50 (skeletal muscle myosin 2; skeletal muscle myosin 2, binds weakly) is given as ~5000 µM.
For `Cc1cc2c(s1)N=C1N(c3ccc(N4CCOCC4)cc3)CCC1(O)C2=O` (stereo not drawn) [Compound 220, 9-Hydroxy-5-methyl-12-[4-(morpholin-4-yl)phenyl]-4-thia-2,12-diazatricyclo[7.3.0.0^3,7]dodeca-1,3(7),5-trien-8-one], the “Maximum change of vital parameters (%) heart rate” value (from here on “Maximum change … (%) heart rate”) ([1]; 1 mg i.p.) was 1%, the “Maximum change of vital parameters (%) oxygen saturation” value (from here on “Maximum change … (%) oxygen saturation”) ([1]; 1 mg i.p.) was −1% and the “Maximum change of vital parameters (%) respiratory frequency” value (“Maximum change … (%) respiratory frequency” for short) ([1]; 1 mg i.p.) was −13%. For the same compound, the “Maximum change of vital parameters (%) blood flow” value (“Maximum change … (%) blood flow” for short) ([1]; 1 mg i.p.) was 8%, the “Maximum change … (%) heart rate” value ([1]; 3 mg i.p.) was 8% and the “Maximum change … (%) oxygen saturation” value ([1]; 3 mg i.p.) was −17%. The “Maximum change … (%) respiratory frequency” value ([1]; 3 mg i.p.) was −21%, the “Maximum change … (%) blood flow” value ([1]; 3 mg i.p.) was 19% and the “Maximum change … (%) heart rate” value ([1]; 6 mg i.p.) was 22%. The “Maximum change … (%) oxygen saturation” value ([1]; 6 mg i.p.) was −28%, the “Maximum change … (%) respiratory frequency” value ([1]; 6 mg i.p.) was −22% and the “Maximum change … (%) blood flow” value ([1]; 6 mg i.p.) was −1%. For the same compound, the “Maximum change … (%) heart rate” value ([1]; 10 mg i.p.) was 3%, the “Maximum change … (%) oxygen saturation” value ([1]; 10 mg i.p.) was −41% and the “Maximum change … (%) respiratory frequency” value ([1]; 10 mg i.p.) was −30%. For the same compound, the “Maximum change … (%) blood flow” value ([1]; 10 mg i.p.) was −3%, the IC50 [2] was 5.6 µM and the “Inhibition (%) cardiac” value ([2]; maximum inhibition, compounds in IC50 range 3-6 μM) was 39%. For the same compound, the “% inhibition. complete cardiac” value [2] was 39%, the inhibition at 5 µM [2] was 17% and the inhibition at 50 µM [2] was 37%. For the same compound, the IC50 [3] was 2.3 µM, the IC50 [4] was > 100 µM and the inhibition at 5 µM [4] was 0%. The inhibition at 50 µM [4] was 0%, the IC50 [5] was 0.93 µM and the “% inhibition. complete NM2A” value [5, 12] was 20%. It also gave an inhibition at 5 µM [5] of 16%, an inhibition at 50 µM [5] of 22% and an IC50 [6] of 1.8 µM. The “Inhibition (%) NM2C” value ([6]; maximum inhibition, compounds in IC50 range 1-5 μM) was 24%, the “% inhibition. complete NM2C” value [6, 12] was 24% and the inhibition at 5 µM [6] was 19%. The inhibition at 50 µM [6] was 21%, the “% inhibition at 5 μM (or 10 μM if racemate) Smooth” value [7] was 34% and the “% inhibition at 50 μM (or 100 μM if racemate) Smooth” value [7] was 54%. The “% inhibition. complete Smooth” value [7] was 51%, the “Maximum change in isometric force at rear leg (%)” value (from here on “Maximum change … at rear leg (%)”) (M. quadriceps femoris; 1 mg i.p.) was 19% and the “Maximum change … at rear leg (%)” value (M. quadriceps femoris; 3 mg i.p.) was 23%. The “Maximum change … at rear leg (%)” value (M. quadriceps femoris; 6 mg i.p.) was 42%, the “% inhibition at 5 μM (or 10 μM if racemate) Skeletal” value [8] was 86% and the “% inhibition at 50 μM (or 100 μM if racemate) Skeletal” value [8] was 94%. The IC50 [8] was 0.49 µM, the “% inhibition. complete Skeletal” value [8] was 96% and the solubility [9] was 710 µM.
For `O=C1c2ccncc2N=C2N(c3ccccc3)CCC12O` (stereo not drawn) [Compound 174, 3a-Hydroxy-1-phenyl-1H,2H,3H,3aH,4H-pyrrolo[2,3-b]1,7-naphthyridin-4-one], the “Maximum change … (%) heart rate” value ([1]; 6 mg i.p.) was 3%, the “Maximum change … (%) oxygen saturation” value ([1]; 6 mg i.p.) was −19% and the “Maximum change … (%) respiratory frequency” value ([1]; 6 mg i.p.) was −20%. The “Maximum change … (%) blood flow” value ([1]; 6 mg i.p.) was 4%, the IC50 [2] was > 100 µM and the “% inhibition. complete cardiac” value [2] was 100%. For the same compound, the inhibition at 5 µM [2] was 2%, the inhibition at 50 µM [2] was 15% and the IC50 [3] was > 100 µM. The IC50 [4] was 10 µM, the “Inhibition (%) Dicty” value ([4]; maximum inhibition, compounds in IC50 range 1-11 μM) was 20% and the “% inhibition. complete Dicty” value [4, 12] was 20%. For the same compound, the inhibition at 5 µM [4] was 7%, the inhibition at 50 µM [4] was 17% and the IC50 [5] was 1 µM. For the same compound, the inhibition at 5 µM [5] was 12%, the inhibition at 50 µM [5] was 9% and the IC50 [6] was 2 µM. For the same compound, the inhibition at 5 µM [6] was 7%, the inhibition at 50 µM [6] was 9% and the “% inhibition at 5 μM (or 10 μM if racemate) Smooth” value [7] was 1%. For the same compound, the “% inhibition at 50 μM (or 100 μM if racemate) Smooth” value [7] was 6%, the “% inhibition. complete Smooth” value [7] was 51% and the “Maximum change … at rear leg (%)” value (M. quadriceps femoris; 6 mg i.p.) was 25%. For the same compound, the “% inhibition at 5 μM (or 10 μM if racemate) Skeletal” value [8] was 25%, the “% inhibition at 50 μM (or 100 μM if racemate) Skeletal” value [8] was 77% and the IC50 [8] was 17 µM. For the same compound, the “% inhibition. complete Skeletal” value [8] was 100%, the IC50 ([10]; concentration required for semi-maximal inhibition of ATPase) was 15 µM and the “% inhibition. complete NM2B” value [10, 12] was 12%. The inhibition at 5 µM ([10]; read-out: % inhibition at 5 μM (or 10 μM if racemate) NM2B, 5 μM (10 μM if racemate), ATPase activity) was 2%, the inhibition at 50 µM ([10]; read-out: % inhibition at 50 μM (or 100 μM if racemate) NM2B, 50 μM (100 μM if racemate), ATPase activity) was 9% and the solubility [9] was ≥ 1000 µM.
In the case of `Cc1ccc2c(c1)C(=O)[C@]1(O)CCN(c3ccccc3)C1=N2` [blebbistatin], the “inhibition of myosin 1, myosin 5, and myosin 10” value [11] is listed as “does not inhibit”.
